Reference: patent US12453725B2, “Treatment of inflammatory disease” (Celleron Therapeutics Limited, priority 2019, dated 2025)

How the values were obtained:
colon26 cells = experiment: qPCR of single genes, colon26 cells; format: cell-based, mouse
Protocol: (§1) Total RNA purified from DMSO- or CXD101 treated cells was transcribed into cDNA according to the manufacturer's instructions (iScript cDNA Synthesis Kit, Bio-Rad, USA). qPCR was conducted according to the manufacturer's protocol (SsoAdvanced Universal SYBR Green Supermix, Bio-Rad Laboratories, USA) on CFX Connect Real-Time System thermocycler (Bio-Rad Laboratories, USA).

HDAC Class 1l = experiment: HDAC Class II inhibition; format: biochemical; conditions: stated as no activity; read-out: activity against HDAC Class 1l
colon26 tumours [1] = experiment: Syngeneic colon26 colon carcinoma model; format: in vivo
Protocol: (§2) To assess gene expression in tumours that were growing in vivo, we evaluated the effect of CXD101 in the syngeneic colon26 colon carcinoma model in tumours grown subcutaneously in Balb/c mice, with CXD101 given orally for two 5-day consecutive periods and performed RNAseq on RNA purified from the tumours. Formalin-fixed paraffin-embedded samples were also prepared to assess by immunohistochemistry (IHC) the tumour micro-environment.
Syngeneic colorectal tumour xenograft Colon 26 model was induced in female BALB/c mice and MC38 model in C57BL/6 mice by subcutaneous injection of cell suspension into the flank following the anaesthetization by inhalation of isoflurane. Upon solid tumour formation Colon 26 animals were divided into six experimental groups treated respectively with: vehicle control (control), CXD101, anti-PD-1 mAb (BioXCell, USA), anti-CTLA4 mAb (BioXCell, USA), combination of CXD101 with anti-PD-1 antibody and combination of CXD101 with anti-CTLA4 antibody. MC38 animals were divided into four groups, without CTLA-4-based treatment. During the course of experiment animals were monitored twice daily and weighed three times a week. Mice in bad overall condition and/or tumour volume exceeding 1000 mm3 were euthanized. Tumour volume was calculated by two-dimensional measurement according to the formula: Tumour volume=(a×b^2)×0.5 in which a—represents the largest and, b—the perpendicular tumour diameter. The study was terminated on 36th day (Colon 26) or 48th day (MC38). All Colon 26 animal handling has been executed by Charles River Laboratories (Germany) personnel with compliance to all local and international laws and regulations. Experiments involving MC38 tumour model have been executed by Crown Bioscience San Diego (USA). CXD101 Clinical Trial in Combination with Nivolumab (CTL-101-023)

A20 tumours = experiment: Syngeneic A20 B cell lymphoma model; format: in vivo, mouse; conditions: CXD101 50 mg/kg
Excerpt: In order to rule out that the effects of the combined therapy were specific to the colon26 and MC38 colorectal cancer model, we widened the study to the syngeneic A20 B cell lymphoma model (FIG. 10). A20 tumours are reported to express high levels of PD-L1 and are responsive to immunomodulatory antibodies (32).

histone H3 acetylation = experiment: Histone H3 acetylation, SW620 cells (western blot); format: cell-based, human; conditions: SW620, 72 hours
Protocol: Cell pellets were lysed in TNN buffer, for 30 minutes on ice and centrifuged for another 30 minutes at maximum speed at 4° C. Protein concentration was assessed by Bradford assay (Quick Start™ Bradford 1× Dye Reagent, Bio-Rad Laboratories, USA). After gel electrophoresis, proteins were transferred onto the PVDF membrane by means of Trans-Blot® Turbo™ Transfer System (Bio-Rad Laboratories, USA) and blocked by 1 h incubation in 5% skim milk (Merck Group, Germany) in PBST at RT. To confirm acetylation induced by CXD101, membranes were incubated with anti-H3 (ab1791, abcam) antibody, anti-H3Ack9 (ab10812, abcam) in case of CT26 cells, and for SW620 with H3Ack14 antibody (#7627, Cell Signaling) overnight, at 4° C. Next, membranes were washed and treated with secondary antibody for 1 h at RT. Chemiluminescent signals were detected by LICOR C-Digit (LI-COR Biosciences, USA), and the data quantified using ImageJ software (National Institutes of Health, USA).

[2] = cited from earlier work
colon26 tumours [3] = experiment: RNAseq and qPCR of colon26 tumours; format: in vivo, Balb/c mice
Protocol: as §2
The effect was dose-dependent, as more tumour-inhibition occurred with a higher dose of CXD101 (50 mg/kg compared to 15 mg/kg). […] We performed RNA seq on polyA-enriched RNA prepared from the tumours. In a similar way to the analysis of colon26 in vitro, the RNAseq data was aligned to the reference M. musculus genome (mm10) with STAR aligner and analysed for differential expression. […] We then assessed whether the same genes identified in the in vitro treated colon26 cells were similarly regulated in vivo.

SW620 cells = experiment: qPCR of single genes, SW620 cells; format: cell-based, human
Protocol: as §1

Cc1nn(C)cc1CN1CCC(c2ccc(C(=O)Nc3ccccc3N)cc2)CC1 [CXD101, N-(2-aminophenyl)-4-(1-[(1,3-dimethyl-1H-pyrazol-4-yl)methyl]piperidin-4-yl)benzamide]
expression of Ctla4, H2-D1, Tnfsrf8 (colon26 cells): no effects
expression of H2-DMb1, H2-Eb1, H2-Dma, Ereg, Timp3, Ccl9, Cc20, II33, Rab3b (colon26 cells): increased expression
expression of H2-T3 (colon26 cells): decreased
IC50 (HDAC Class 1l): ≥ 2500 nM
growth of colon26 tumours (colon26 tumours [1]; mono-therapy vs combined treatment study): inhibitory effect
body weight (colon26 tumours [1]; mono-therapy, 15 and 50 mg/kg): minimal effect
tumour growth (colon26 tumours [1]; mono-therapy, oral, two 5-day periods, 15 and 50 mg/kg, dose-dependent): significant inhibition of tumour growth
A20 tumour progression (A20 tumours): modest effect
acetylation on histone H3 lysine (histone H3 acetylation): increased level of acetylation
patients with tumour reduction ([2]; T-cell lymphoma, follicular lymphoma, Hodgkin lymphoma): 63%
MTD ([2]; for 5 days in a 3-weekly cycle): 20 mg B.D.
expression of Ccl20, Tnfsrf8 (colon26 tumours [3]; colon26 tumours, qPCR): no effects
expression of H2-DMb1, H2-Eb1, H2-Dmb1, H2-T3, Ereg, Timp3, Ctla4, H2-D1, Ccl9, 1133 (colon26 tumours [3]; colon26 tumours, qPCR): increased expression
expression of Rab3b (colon26 tumours [3]; colon26 tumours, qPCR): decreased
number of DEGs in tumours in vivo (colon26 tumours [3]; log 2 FC >1 and FDR <1%): 1141
expression of HLA-B, HLA-F, HLA-DPA1, HLA-DQB1, CTLA4, CDKN1A, TIMP3 (SW620 cells): increases expression
expression of PHGDH, BCL2L15 (SW620 cells): decreases
expression of REPIN1 (SW620 cells): no effect
